Like-named read-outs stand apart in the source and are kept apart here.
Columns and labels:
[1] = Acute toxicity (LD50) in mice; conditions: mouse, in vivo, observation time 14 days
Experimental: The acute toxicity of the test compounds was determined in mice (observation time: 14 days). The LD50 was calculated from the percentage of animals which died within the observation time after administration, i.v. or p.o., of varying doses [see J. Pharmacol. exper. Therap. 96, 99 (1949)].

[2] = tested on: platelet adhesiveness in human blood; experiment: Morris retention test, inhibition of platelet adhesiveness; type: cell-based; conditions: 10 min; for inhibition at 10 µM: 10 μ mols/liter, 10 minutes at 37°C, glass beads
Experimental: 2. Determination of inhibiting effect on platelet adhesiveness in human blood by the so-called retention test according to Morris (E. Deutsch, E. Gerlach and K. Moser: 1. Internationales Symposium uber Stoffwechsel und Membranpermeabilitat von Erythrozyten and Thrombozyten, Vienna, 1969; Georg Thieme Verlag, Stuttgart, Germany).
To determine the inhibiting action of the test compound on thrombocyte aggregation, 1 ml of human blood was pipetted into each of a plurality of small test tubes, and the test compound was added to give a final concentration of 5 × 10^-^5 mol/liter or 1 × 10^^-5 mol/liter. The tubes were incubated for 10 minutes at 37°C. 1 gm of glass beads (for gas-chromatography) was added to half of the tubes. Then, the stoppered tubes were attached to a disc mounted for rotation about a horizontal axis and rotated for 1 minute. By this means good contact was obtained between the glass beads and the blood. The tubes were then left standing at room temperature for another hour, after which time a satisfactory sedimentation of erythrocytes had taken place. 0.01 ml of the supernatant plasma was removed, diluted 1:8000 with celloscope solution, and the platelet count was read in a celloscope. The percentage reduction of the stickiness due to the presence of the test compound, compared to the tubes containing no glass beads, was measured (average values of 4- 6 tests).

[3] = tested on: platelet aggregation in human blood plasma; experiment: Born and Cross test, ADP-induced platelet aggregation; type: cell-based; conditions: 10 min, human platelet-rich plasma, 10 minutes at 37°C, read-out: Born and Cross test (ADP) EC50 (concentration which causes a 50% alteration of the "optical density")
Experimental: 1. Determination of inhibiting effect upon platelet aggregation in human blood plasma by the method of Born and cross, J. Physiol. 170, 397 (1964):
The platelet aggregation was measured in the platelet-rich plasma of normal, healthy human donors. The rate of decline of the optical density of the platelet suspension was measured and recorded photometrically after the addition of adenosine diphosphate (ADP). From the angle of inclination of the density curve, the speed of aggregation was concluded. The optical density was taken as the point on the curve where most light was transmitted. The smallest possible doses of ADP were chosen, but enough to result in irreversible aggregation. The plasma was incubated at 37°C for 10 minutes with varying quantities of the test compound before ADP was added.

[4] = Hygroscopicity remark on acid addition salt; type: physicochemical; conditions: printed beside m.p. of the salt

SMILES	LD50 at 336 h ([1]; iv, read-out: LD50 i.v.) [mg/kg]	LD50 at 336 h ([1]; po, read-out: LD50 p.o.) [mg/kg]	inhibition at 10 µM [2] [%]	IC50 [3] [nM]	hygroscopicity [4]	inhibition at 30 µM ([2]; Concentration: 30μ mols/liter (footnote +)) [%]
CCOc1nc(N2CCNCC2)nc(N2CC[S+]([O-])CC2)c1[N+](=O)[O-] [D, 6-ethoxy-5-nitro-4-(1-oxido-thiomorpholino)-2-piperazino-pyrimidine]	150	600	100	25		
CCOc1nc(N2CCNCC2)nc(N2CC[S+]([O-])CC2)c1[N+](=O)[O-] [Fumarate, 6-Ethoxy-5-nitro-4-(1-oxido-thiomorpholino)-2-piperazino-pyrimidine]					hydroscopic	
CSc1nc(N2CCN(C=O)CC2)nc(N2CC[S+]([O-])CC2)c1[N+](=O)[O-] [G, 6-methylthio-5-nitro-4-(1-oxido-thiomorpholino)-2-(N'-formyl-piperazino)-pyrimidine]		> 1000	2	50000		
N#Cc1nc(N2CCNCC2)nc(N2CC[S+]([O-])CC2)c1Cl [C, 5-chloro-6-cyano-2-piperazino-4-(1-oxido-thiomorpholino)-pyrimidine]	101	836	92	130		
CC(C)Oc1nc(N2CCNCC2)nc(N2CC[S+]([O-])CC2)c1[N+](=O)[O-] [E, 5-nitro-4-(1-oxido-thiomorpholino)-2-piperazino-6-isopropoxy-pyrimidine]	170	500	69	200		
Cc1nc(N2CCNCC2)nc(N2CC[S+]([O-])CC2)c1[N+](=O)[O-] [A, 6-methyl-5-nitro-2-piperazino-4-(1-oxido-thiomorpholino)-pyrimidine]	160	600	92	12		
CC(=O)CC(=O)N1CCN(c2nc(C)c([N+](=O)[O-])c(N3CC[S+]([O-])CC3)n2)CC1 [H, 6-methyl-5-nitro-4-(1-oxido-thiomorpholino)-2-(N'-acetoacetyl-piperazino)-pyrimidine]		> 1000		100000		11
Cc1nc(N2CCNCC2)nc(N2CCSCC2)c1[N+](=O)[O-] [B, 6-methyl-5-nitro-2-piperazino-4-thiomorpholino-pyrimidine]	70	620	66	3000		
CCC(C)Oc1nc(N2CCNCC2)nc(N2CCS(=O)(=O)CC2)c1[N+](=O)[O-] (stereo not shown) [F, 6-sec.Butoxy-4-(1,1-dioxido-thiomorpholino)-5-nitro-2-piperazino-pyrimidine]	150	1500	61	850		
